The values below come from ChEMBL document CHEMBL1201862, “PubChem BioAssay data set” (2004).

Assay [1] addresses T1, Adenosylmethionine-8-amino-7-oxononanoate aminotransferase (Mycobacterium tuberculosis, UniProt P9WQ81).
T1 sequence (P9WQ81 whole entry): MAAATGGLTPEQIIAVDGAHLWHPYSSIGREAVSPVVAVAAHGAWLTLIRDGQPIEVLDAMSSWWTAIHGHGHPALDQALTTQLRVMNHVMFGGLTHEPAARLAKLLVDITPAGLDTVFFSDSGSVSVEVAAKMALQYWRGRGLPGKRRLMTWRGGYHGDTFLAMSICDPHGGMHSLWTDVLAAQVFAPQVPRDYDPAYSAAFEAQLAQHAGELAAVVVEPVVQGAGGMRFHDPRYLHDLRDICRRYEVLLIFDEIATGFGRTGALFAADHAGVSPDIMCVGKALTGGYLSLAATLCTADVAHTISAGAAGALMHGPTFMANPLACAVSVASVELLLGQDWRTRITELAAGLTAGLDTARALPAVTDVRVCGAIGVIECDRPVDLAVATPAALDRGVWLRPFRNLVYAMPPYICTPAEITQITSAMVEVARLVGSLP
In words: Mycobacterium tuberculosis BioA enzyme inhibitor Measured in Biochemical System Using Plate Reader - 2163-02_Inhibitor_Dose_CherryPick_Activity. Type of assay: functional, Mycobacterium tuberculosis UT205.

In assay [2] the target is T2, Hexokinase HKDC1 (Homo sapiens, UniProt Q2TB90).
T2 sequence (Q2TB90 whole entry): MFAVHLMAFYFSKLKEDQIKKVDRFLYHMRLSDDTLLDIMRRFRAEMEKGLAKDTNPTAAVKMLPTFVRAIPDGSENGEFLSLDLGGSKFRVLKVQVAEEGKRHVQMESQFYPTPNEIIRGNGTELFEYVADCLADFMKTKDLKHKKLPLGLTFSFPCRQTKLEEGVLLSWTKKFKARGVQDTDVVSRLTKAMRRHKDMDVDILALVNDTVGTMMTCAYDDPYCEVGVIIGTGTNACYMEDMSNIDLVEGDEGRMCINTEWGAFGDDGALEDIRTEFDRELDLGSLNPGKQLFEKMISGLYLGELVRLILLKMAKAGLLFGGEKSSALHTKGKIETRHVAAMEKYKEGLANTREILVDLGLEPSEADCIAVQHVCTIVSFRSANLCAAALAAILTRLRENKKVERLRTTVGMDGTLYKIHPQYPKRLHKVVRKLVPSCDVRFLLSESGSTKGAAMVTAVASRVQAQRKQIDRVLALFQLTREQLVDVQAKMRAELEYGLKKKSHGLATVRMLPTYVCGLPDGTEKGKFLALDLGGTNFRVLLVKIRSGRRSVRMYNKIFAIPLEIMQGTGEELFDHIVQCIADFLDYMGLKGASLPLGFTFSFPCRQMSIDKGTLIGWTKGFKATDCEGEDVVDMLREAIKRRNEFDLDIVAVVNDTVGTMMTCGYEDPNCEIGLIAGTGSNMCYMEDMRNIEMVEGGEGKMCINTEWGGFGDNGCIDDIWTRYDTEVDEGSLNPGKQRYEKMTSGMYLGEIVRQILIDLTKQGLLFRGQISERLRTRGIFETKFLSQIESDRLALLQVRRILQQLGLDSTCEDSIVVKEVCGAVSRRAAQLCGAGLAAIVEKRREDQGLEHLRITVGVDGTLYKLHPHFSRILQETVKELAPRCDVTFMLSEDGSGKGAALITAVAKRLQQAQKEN
Nature of the assay: inhibition of HKDC1 glucose phosphorylation – biochemical, W721R variant, dose response (AID 504729). Type of assay: functional.

Assay [3] has as its target Dual specificity protein phosphatase 3 (Homo sapiens, UniProt P51452). In words: inhibition constants for human DUSP3 – biochemical, colorimetric, SAR follow-up (AID 2004).
In assay [4] the target is Beta-galactosidase (Escherichia coli, UniProt Q8VNN2). Nature of the assay: detection-enzyme interference by beta-gal modulators – biochemical, E. coli enzyme, set 3, artefact control for CCR6 antagonist project, dose response (AID 504712). Type of assay: functional.
Assay [5] deals with T3, Eukaryotic translation initiation factor 4H (Homo sapiens, UniProt Q15056). In words: eIF4H binding inhibition – biochemical, uHTS, fluorescence polarization, translation initiation inhibitor project, primary screen (AID 2012).
Assay [6] addresses T4, DNA dC->dU-editing enzyme APOBEC-3A (Homo sapiens, UniProt P31941). Nature of the assay: SAR analysis of small molecule inhibitors of APOBEC3A DNA Deaminase via a fluorescence-based single-stranded DNA deaminase assay - Set 2. In kind it is functional. The following applies: read-out: IC50_Mean.
Assay [7] addresses T5, Polyadenylate-binding protein 1 (Homo sapiens, UniProt P11940). In words: blockers of PABP interaction with poly(A) – biochemical, fluorescence polarization, […] (AID 2014).
The target in assay [8] is T3, Eukaryotic translation initiation factor 4H. Nature of the assay: inhibitors of translation initiation factor eIF4H – SAR follow-up (AID 435011). In kind it is functional.
Assay [9] has as its target T6, DNA dC->dU-editing enzyme APOBEC-3G (Homo sapiens, UniProt Q9HC16). Nature of the assay: inhibition of APOBEC3G ssDNA deamination – biochemical, fluorescence, single-stranded DNA substrate, SAR follow-up (AID 602136). In kind it is functional. The conditions noted are these: read-out: IC50_Mean.
Assay [10] has as its target T5, Polyadenylate-binding protein 1. In words: PABP inhibition in translation initiation, SAR follow-up (AID 435018). In kind it is functional.
The target of assay [11] is T6, DNA dC->dU-editing enzyme APOBEC-3G. Type of assay: functional.
Assay [12] shares this target. In words: SAR analysis of small molecule inhibitors of APOBEC3G DNA Deaminase via a fluorescence-based single-stranded DNA deaminase assay - Set 2. Type of assay: functional. The following applies: read-out: IC50_Mean.
Assay [13] concerns the target T4, DNA dC->dU-editing enzyme APOBEC-3A. In words: SAR analysis of small molecule inhibitors of APOBEC3A DNA Deaminase via a fluorescence-based single-stranded DNA deaminase assay. Type of assay: functional. The following applies: read-out: IC50_Mean.
Assay [14] shares this target. In words: Dose Response confirmation of small molecule APOBEC3A DNA Deaminase Inhibitors via a fluorescence-based single-stranded DNA deaminase assay. [Related pubchem assays (depositor defined):AID493011, AID493024]. In kind it is functional.
Assay [15] concerns the target G-protein coupled receptor 55 (Homo sapiens, UniProt Q9Y2T6). In words: selective activators of receptor GPR55 – imaging, U2OS cells, beta-arrestin-GFP redistribution, primary screen (AID 1961). Type of assay: functional.
The target in assay [16] is Mu-type opioid receptor (Homo sapiens, UniProt P35372). In words: SAR Analysis of Antagonists of the MOR Receptor using an Image-Based Assay - Set 3. [Related pubchem assays (depositor defined):AID1777, AID1785, AID1786, AID1966, AID2133, AID2136, AID2284, AID2285, AID2420]. Type of assay: functional.
Sequence of Mu-type opioid receptor (P35372 whole entry): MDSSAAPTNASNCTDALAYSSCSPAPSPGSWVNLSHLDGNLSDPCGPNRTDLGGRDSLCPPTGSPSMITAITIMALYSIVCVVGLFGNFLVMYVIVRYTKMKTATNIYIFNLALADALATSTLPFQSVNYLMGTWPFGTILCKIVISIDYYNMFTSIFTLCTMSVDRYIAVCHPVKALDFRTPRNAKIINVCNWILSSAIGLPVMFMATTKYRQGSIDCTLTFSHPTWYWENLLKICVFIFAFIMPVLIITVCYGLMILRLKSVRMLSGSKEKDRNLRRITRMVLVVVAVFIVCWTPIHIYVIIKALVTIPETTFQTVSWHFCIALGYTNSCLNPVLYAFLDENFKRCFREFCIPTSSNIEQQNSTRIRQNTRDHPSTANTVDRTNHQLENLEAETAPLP
In assay [17] the target is Delta-type opioid receptor (Homo sapiens, UniProt P41143). Nature of the assay: SAR Analysis of Antagonists of the DOR Receptor using an Image-Based Assay - Set 3. [Related pubchem assays (depositor defined):AID1777, AID1785]. In kind it is functional.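 Also: U2OS cells expressing DOR1 and beta-arrestin GFP stimulated with 100 nM SNC80; imaging of GFP-tagged beta-arrestin moving into spots after receptor activation.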
Sequence of Delta-type opioid receptor (P41143 whole entry): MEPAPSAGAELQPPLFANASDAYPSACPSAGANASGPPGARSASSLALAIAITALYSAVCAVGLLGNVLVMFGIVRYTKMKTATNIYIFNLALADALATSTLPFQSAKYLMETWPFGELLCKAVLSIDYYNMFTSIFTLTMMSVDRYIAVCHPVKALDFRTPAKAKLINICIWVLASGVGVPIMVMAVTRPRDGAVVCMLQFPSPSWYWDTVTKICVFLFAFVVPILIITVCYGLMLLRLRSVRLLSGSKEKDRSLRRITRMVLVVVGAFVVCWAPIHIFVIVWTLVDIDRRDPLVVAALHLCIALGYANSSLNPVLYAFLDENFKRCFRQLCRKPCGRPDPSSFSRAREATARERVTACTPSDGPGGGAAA
The target in assay [18] is T7, Kappa-type opioid receptor (Homo sapiens, UniProt P41145). In words: SAR analysis of Antagonists of the Kappa Opioid Receptor (KOR) using an Image-Based Assay - Set 4. [Related pubchem assays (depositor defined):AID1777, AID1785]. In kind it is functional.
T7 sequence (P41145 whole entry): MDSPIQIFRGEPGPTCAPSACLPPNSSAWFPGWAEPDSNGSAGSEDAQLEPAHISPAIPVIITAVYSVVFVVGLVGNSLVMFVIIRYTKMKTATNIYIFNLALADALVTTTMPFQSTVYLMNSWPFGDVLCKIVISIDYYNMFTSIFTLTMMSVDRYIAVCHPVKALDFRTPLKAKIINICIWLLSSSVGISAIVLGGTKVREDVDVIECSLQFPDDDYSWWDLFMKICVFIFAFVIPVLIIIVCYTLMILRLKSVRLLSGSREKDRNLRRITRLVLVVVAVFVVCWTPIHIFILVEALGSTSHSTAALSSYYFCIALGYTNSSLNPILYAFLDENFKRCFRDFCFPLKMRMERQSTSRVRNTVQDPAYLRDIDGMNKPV
Assay [19] concerns the target T7, Kappa-type opioid receptor. Nature of the assay: SAR analysis of small molecule antagonists of the kappa opioid receptor via a luminescent beta-arrestin assay - Set 4. [Related pubchem assays (depositor defined):AID1777, AID1778, AID1785, AID1786, AID1966, AID2133, AID2136, AID2285]. In kind it is functional.
In assay [20] the target is T7, Kappa-type opioid receptor. Nature of the assay: SAR analysis of Antagonists of the Kappa Opioid Receptor (KOR) using an Image-Based Assay - Set 3. [Related pubchem assays (depositor defined):AID1777, AID1785]. In kind it is functional.
Assay [21] deals with T7, Kappa-type opioid receptor. Nature of the assay: SAR analysis of small molecule antagonists of the kappa opioid receptor via a luminescent beta-arrestin assay - Set 3. [Related pubchem assays (depositor defined):AID1777, AID1778, AID1785, AID1786, AID1966, AID2133, AID2136, AID2285, AID2495]. Type of assay: functional.
In assay [22] the target is Tumor necrosis factor (Homo sapiens, UniProt P01375). In words: analog potency on TNFa NF-kB signaling – cell-based, revised, SAR follow-up (AID 2337). Type of assay: functional.
Sequence of Tumor necrosis factor (P01375 whole entry, the tested form may be a part): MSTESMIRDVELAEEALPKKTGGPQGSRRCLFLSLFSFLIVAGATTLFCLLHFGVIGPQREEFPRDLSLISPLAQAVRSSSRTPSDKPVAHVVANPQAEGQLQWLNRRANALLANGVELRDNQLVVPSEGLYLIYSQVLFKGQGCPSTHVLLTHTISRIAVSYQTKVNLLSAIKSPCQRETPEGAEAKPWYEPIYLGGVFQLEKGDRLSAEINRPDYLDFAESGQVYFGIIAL
Assay [23] has as its target Nucleotide-binding oligomerization domain-containing protein 1 (Homo sapiens, UniProt Q9Y239). In words: blockers of NOD1 pathway activity – revised, SAR follow-up (AID 2333). In kind it is functional.
In assay [24] the test system is HEK293. In words: cells. The following applies: Homo sapiens.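 Also: cells exposed to compound for 14 hours overnight before viability readout.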

Active and inactive are the calls of the source. Some results are limits rather than exact numbers.

T4 sequence (P31941 whole entry): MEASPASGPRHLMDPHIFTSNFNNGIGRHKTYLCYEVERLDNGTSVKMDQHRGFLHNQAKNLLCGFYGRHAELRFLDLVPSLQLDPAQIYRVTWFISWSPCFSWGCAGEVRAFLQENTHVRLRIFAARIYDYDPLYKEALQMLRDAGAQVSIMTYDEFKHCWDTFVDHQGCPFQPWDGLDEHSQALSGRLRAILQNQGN
T6 sequence (Q9HC16 whole entry): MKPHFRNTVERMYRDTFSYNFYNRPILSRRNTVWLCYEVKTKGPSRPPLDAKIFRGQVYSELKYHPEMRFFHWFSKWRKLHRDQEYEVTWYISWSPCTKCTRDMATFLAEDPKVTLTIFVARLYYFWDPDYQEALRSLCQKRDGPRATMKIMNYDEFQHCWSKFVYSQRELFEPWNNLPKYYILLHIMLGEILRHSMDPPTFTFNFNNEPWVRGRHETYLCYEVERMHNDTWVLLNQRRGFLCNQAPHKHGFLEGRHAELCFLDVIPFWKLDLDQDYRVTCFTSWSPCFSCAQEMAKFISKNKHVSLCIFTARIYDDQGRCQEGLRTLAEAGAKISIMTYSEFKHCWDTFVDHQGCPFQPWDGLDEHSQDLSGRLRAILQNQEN
T5 sequence (P11940 whole entry): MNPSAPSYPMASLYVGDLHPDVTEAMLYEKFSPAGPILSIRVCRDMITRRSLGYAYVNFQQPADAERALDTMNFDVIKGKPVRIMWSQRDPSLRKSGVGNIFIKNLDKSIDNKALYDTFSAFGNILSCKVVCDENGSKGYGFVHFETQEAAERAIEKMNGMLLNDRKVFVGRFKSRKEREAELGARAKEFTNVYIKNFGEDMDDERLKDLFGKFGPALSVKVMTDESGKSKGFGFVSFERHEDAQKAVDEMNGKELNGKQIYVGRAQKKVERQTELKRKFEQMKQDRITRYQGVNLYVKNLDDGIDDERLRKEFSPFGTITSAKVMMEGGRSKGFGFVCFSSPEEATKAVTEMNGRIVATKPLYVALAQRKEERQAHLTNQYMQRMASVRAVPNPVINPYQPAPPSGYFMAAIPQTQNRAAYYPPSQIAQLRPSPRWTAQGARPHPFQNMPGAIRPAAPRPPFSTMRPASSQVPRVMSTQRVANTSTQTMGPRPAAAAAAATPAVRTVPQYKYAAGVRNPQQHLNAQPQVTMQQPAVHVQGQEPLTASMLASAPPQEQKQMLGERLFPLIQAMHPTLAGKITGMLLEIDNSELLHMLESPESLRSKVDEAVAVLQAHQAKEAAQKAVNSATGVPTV
Sequence of Dual specificity protein phosphatase 3 (P51452 whole entry): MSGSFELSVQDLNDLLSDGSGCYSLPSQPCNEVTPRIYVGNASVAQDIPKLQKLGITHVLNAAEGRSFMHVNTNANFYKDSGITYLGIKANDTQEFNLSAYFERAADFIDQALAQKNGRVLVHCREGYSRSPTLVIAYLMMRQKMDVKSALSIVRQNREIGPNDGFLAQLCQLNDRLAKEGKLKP
Sequence of Nucleotide-binding oligomerization domain-containing protein 1 (Q9Y239 whole entry, the tested form may be a part): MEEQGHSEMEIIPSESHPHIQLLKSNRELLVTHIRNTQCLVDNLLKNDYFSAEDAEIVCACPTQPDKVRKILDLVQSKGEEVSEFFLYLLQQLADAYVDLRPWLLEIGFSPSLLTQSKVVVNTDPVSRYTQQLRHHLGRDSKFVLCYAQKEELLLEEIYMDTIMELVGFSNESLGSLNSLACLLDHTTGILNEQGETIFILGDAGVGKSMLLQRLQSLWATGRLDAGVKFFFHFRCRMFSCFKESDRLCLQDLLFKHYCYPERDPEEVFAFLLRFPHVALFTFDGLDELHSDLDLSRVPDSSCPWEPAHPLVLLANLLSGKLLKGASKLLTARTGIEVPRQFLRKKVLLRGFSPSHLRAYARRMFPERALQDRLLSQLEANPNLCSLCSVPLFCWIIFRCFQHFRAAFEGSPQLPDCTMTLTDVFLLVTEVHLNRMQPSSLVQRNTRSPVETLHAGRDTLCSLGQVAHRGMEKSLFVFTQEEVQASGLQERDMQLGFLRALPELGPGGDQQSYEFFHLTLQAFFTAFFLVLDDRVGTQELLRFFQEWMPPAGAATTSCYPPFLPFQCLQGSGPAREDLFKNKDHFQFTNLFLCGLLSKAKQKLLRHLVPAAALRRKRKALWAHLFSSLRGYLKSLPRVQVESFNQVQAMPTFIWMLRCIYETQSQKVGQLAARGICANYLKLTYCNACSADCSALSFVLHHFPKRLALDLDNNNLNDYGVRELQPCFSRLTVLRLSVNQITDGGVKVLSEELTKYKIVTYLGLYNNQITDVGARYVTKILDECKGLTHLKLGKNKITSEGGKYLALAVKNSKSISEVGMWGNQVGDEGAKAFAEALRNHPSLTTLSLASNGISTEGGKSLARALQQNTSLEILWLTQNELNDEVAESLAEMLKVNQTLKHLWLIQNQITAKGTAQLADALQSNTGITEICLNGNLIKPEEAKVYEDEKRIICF
Sequence of G-protein coupled receptor 55 (Q9Y2T6 whole entry): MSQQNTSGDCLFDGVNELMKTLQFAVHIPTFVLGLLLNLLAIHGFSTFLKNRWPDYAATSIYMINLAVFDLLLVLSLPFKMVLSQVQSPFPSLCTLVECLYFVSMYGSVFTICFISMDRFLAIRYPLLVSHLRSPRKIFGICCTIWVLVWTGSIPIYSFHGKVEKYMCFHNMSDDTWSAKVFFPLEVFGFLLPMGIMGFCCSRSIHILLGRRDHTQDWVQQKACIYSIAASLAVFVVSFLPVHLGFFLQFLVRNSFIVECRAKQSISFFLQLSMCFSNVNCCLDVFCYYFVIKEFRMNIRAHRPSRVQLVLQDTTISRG

As for `O=C(CSc1nnc(-c2cccnc2)[nH]1)Nc1ccnc2ccccc12`, the half-maximal activity concentration (AC50) in assay [1] is 6.07 µM (active). Moreover, the IC50 in [2] was 13.1 µM (active).
`COc1ccccc1CC(=N)NOC(=O)c1ccco1`: the Ki in [3] was 48.4 µM (inactive).
`CCCCC(=O)NNC=C1C(=O)N(CC)C(=S)N(CC)C1=O`: the IC50 in assay [4] is > 66.6 µM (inactive).
As to `CCOC(=O)c1ccc2c(c1)N(C)C(=O)c1ccccc1S2`, the IC50 in [5] is > 100 µM (inactive); in [6] it was 12.9 µM (inactive); in assay [7], 8.14 µM (active); in assay [8] it was 11.7 µM (active); in assay [9], 8.67 µM (active); in assay [10] it was 22.2 µM (active). For the same molecule, the IC50 in assay [11] was > 100 µM (inactive); in assay [12] it was > 99 µM (inactive); in assay [13] it was 16.6 µM (inactive); in [14] it was 1.55 µM (active).
On to `COc1cc(/C=C2\C(=O)ON=C2c2ccccc2)cc(Cl)c1O`, for which the EC50 in assay [15] was > 32 µM (inactive).
As for `CC(C)c1ccc(S(=O)(=O)NCc2ccc(C(=O)NCCN(Cc3ccccc3)C(C)C)cc2)cc1`, the IC50 was 0.66 µM (active) in assay [16], > 32 µM (inactive) in assay [17], 0.531 µM (active) in [18] and 1.57 µM (active) in assay [19].
For the molecule `O=C(Cn1c(=O)c2cccn2c2cccnc21)NCCCN1CCN(Cc2ccccc2)CC1`, the IC50 in [16] is > 32 µM (inactive); in [20] it was 11 µM (inactive); in assay [17], > 32 µM (inactive); in assay [21], > 20 µM (inactive).
`O=C(Nc1ccc(Cl)c([N+](=O)[O-])c1)c1ccc2ccccc2c1O`: the figures for the IC50 in assay [22], in assay [23] and in assay [24] were 0.87 µM (active), 0.692 µM (active) and 4.04 µM (active), respectively.
